The values that follow come from patent US12227512B2, “Benzimidazoles and methods of using same” (priority 2019, dated 2025).

The subject of data set [1] is Rift Valley Fever Virus (RVFV). Conditions: reported value; cited from earlier work.
The test system of data set [2] is MB002 cells. Description: MTT assay, cell proliferation. It counts as cell-based. The settings on record: MB002, MTT, dose for Fa=0.5 inhibition (50%).
Data set [3] has as its system Dengue virus 2 New Guinea C. Description: In vitro antiviral screening, Neutral Red (Cytopathic effect). Conditions: Huh7; for SI50: Neutral Red (Cytopathic effect/Toxicity); for EC50: Dengue virus, Huh-7, Control drug, Neutral Red (Cytopathic effect).
In data set [4] the test system is Dengue virus 2 New Guinea C. Briefly: In vitro antiviral screening, Visual (Virus yield reduction). The settings on record: Huh7; for SI90: Visual (Virus yield reduction)/Neutral Red (Toxicity); for EC90: Dengue virus, Huh-7, Control drug, Visual (Virus yield reduction).
A short description of data set [5]: Neutral Red (Toxicity) of the antiviral screening. Conditions: human, Huh7 cells, CC50, Control drug.
The subject of data set [6] is Zika MR766. Briefly: In vitro antiviral screening, Neutral Red (Cytopathic effect). The settings on record: Vero 76.
The subject of data set [7] is Zika MR766. Briefly: In vitro antiviral screening, Visual (Virus yield reduction). Conditions: Vero 76.
The nature of data set [8]: Neutral Red (Toxicity) of the antiviral screening. Conditions: African green monkey, Vero 76 cells.
The test system of data set [9] is Gli-luciferace activity in the SUFU-KO-light cells. Briefly: SUFU-KO-Light assay, inhibition of Gli-luciferase activity. In kind it is cell-based. The settings on record: inhibition of Gli-luciferase activity; read-out: IC50 (μM) SUFU-KO-Light. The text has this: IC50 SUFO-KO-Light values are for inhibition of Gli-luciferace activity in the SUFU-KO-light cells developed by the James Chen laboratory at Stanford University.

Data set [10] has as its system SUFU-KO-Light cells expressing Gli-luciferase. Briefly: Dose-effect curves, dual-Glo luciferase, Compusyn. It counts as cell-based. The settings on record: SUFU-KO-Light, Gli-luciferase, Fa=0.5.
Data set [11] has as its system Gli-1 and c-Myc. Briefly: Western blot of Gli-1 and c-Myc in SUFU-KO-Light cells. Conditions: 48 hours, immunoblotting. It counts as cell-based.

pEC50, pIC50: −log10 of the molar value. ≈ marks a conversion by molar mass, not a printed value. Read-outs that look alike come from different tables or passages of the source. Some results are limits rather than exact numbers.

As to `Nc1ncnc2c([C@H]3N[C@@H](CO)[C@H](O)[C@@H]3O)c[nH]c12` [BCX4430], the pEC50 in data set [1] was 4.38.
Regarding `N.N.[Cl][Pt][Cl]` [Cisplatin, reference compound], the pIC50 in [2] (read-out: Dose Cis) was 6.11.
With `O=c1cnn([C@@H]2O[C@H](CO)[C@@H](O)[C@H]2O)c(=O)[nH]1` [Compound 6-azauridine, 6-azauridine, reference compound], the SI50 was >19 in [3] (Assay No. 1); 15 in [3] (Assay No. 2); 40 in [6] (Assay No. 3, Neutral Red (Cytopathic effect/Toxicity)). Further, the figures for the EC50 in [3] (Assay No. 1), in data set [3] (Assay No. 2) and in data set [6] (Zika virus) were 5.3 µg/mL (≈ 21.6 µM), 1.8 µg/mL (≈ 7.34 µM) and 0.66 µg/mL (≈ 2.69 µM), respectively. Moreover, the SI90 in data set [4] (Assay No. 1) is >10; in data set [4] (Assay No. 2), 15; in [7] (Assay No. 3, Visual (Virus yield reduction)/Neutral Red (Toxicity)) it was 0. The values for the EC90 in data set [4] (Assay No. 1), in data set [4] (Assay No. 2) and in [7] (Zika virus) were 10 µg/mL (≈ 40.8 µM), 1.8 µg/mL (≈ 7.34 µM) and > 26.5 µg/mL, respectively. For the same molecule, the cytotoxic concentration (CC50) in [5] (Assay No. 1, Neutral Red (Cytopathic effect/Toxicity) line) was > 100 µg/mL; in data set [5] (Assay No. 1, Neutral Red (Toxicity), line of the virus yield reduction assay), > 100 µg/mL; in data set [5] (Assay No. 2, Neutral Red (Cytopathic effect/Toxicity) line) it was 27 µg/mL (≈ 110 µM); in [5] (Assay No. 2, Neutral Red (Toxicity), line of the virus yield reduction assay), 27 µg/mL (≈ 110 µM); in [8], 26.5 µg/mL (≈ 108 µM).
On to `CN(C)CC1COc2ccc3nc4n(c3c2C1)CC(CN(C)C)CN4` (stereo not drawn) [IBIS-560146], for which the IC50 in data set [9] is > 2 µM.
Regarding `CC(C)n1nc(-c2ccc3oc(N)nc3c2)c2c(N)ncnc21` [Ink-128, reference compound], the pEC50 in data set [10] (read-out: EC50 as single agent) is 8.22; in data set [10] (unit from FIG. 15 legend, read-out: Dose Ink) it was 8.21. Also, the pIC50 in data set [2] (read-out: Dose Ink) is 7.22.
Take `CN(C)CCCn1c(N)nc2ccc(OCCN(C)C)cc21` [Isis-4]: in [9], the IC50 is 10 µM.
In the case of `CN(C)CCCn1c(N)nc2ccc3c(c21)CC(CN(C)C)CO3` (stereo not drawn) [Isis-12], the IC50 in data set [9] came to 1.5 µM.
For `CN(C)CC1CNc2nc3ccc4c(c3n2C1)CC(CN(C)C)O4` (stereo not drawn) [Isis-075], the IC50 in data set [9] came to 0.36 µM.
Turning to `Cc1sc2c(c1C)C(c1ccc(Cl)cc1)=N[C@@H](CC(=O)OC(C)(C)C)c1nnc(C)n1-2` [JQ1, reference compound], the “Gli-1 and c-Myc levels” value in [11] is “decrease both Gli-1 and c-Myc”.
